# From ChEMBL document CHEMBL1201862, “PubChem BioAssay data set” (2004)
# The source made the active and inactive calls.
# Key:
# [1] = reduction of Shn3 3'UTR-driven luciferase in osteoblasts – cell-based, Clone20 osteoblasts, firefly luciferase, cherry-picked, dose response (AID 624132); type: functional;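 further: firefly luciferase luminescence from reporter carrying the Shn3 3'UTR in osteoblasts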
# [2] = loss of viability in HepG2 cells – cell-based, CellTiter-Glo, cherry-picked, cytotoxicity control for Shn3 inhibitor project, dose response (AID 624134); type: functional
# [3] = non-specific 3'UTR reporter inhibition in Clone20-Shn3RL – cell-based, Renilla luciferase, cherry-picked, counter-screen for Shn3 inhibitor project, dose response (AID 624133); type: functional
# cells [4] = type: functional, cell-based
# cells [5] = type: functional, cell-based; remark: listed apart in the source
# [6] = Shn3 transcript knock-down in Clone20 cells – cell-based, qPCR, cherry-pick, dose response (AID 743415); type: functional
# [7] = Shn3 3'UTR reporter signal decrease – cell-based, Clone20 osteoblasts, firefly luciferase, cherry-pick, set 2, Schnurri-3 inhibitor project, dose response (AID 720490); type: functional;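 further: actives lower the luminescence signal as inhibitors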
# [8] = EF1alpha-driven Renilla reporter with control 3'UTR suppression – Clone20-Shn3RL cells, dual-Glo, cherry-pick, set 2, counter-screen for Shn3 3'UTR targeting project, dose response (AID 720724); type: functional, cell-based; settings: Dual-Go Shn3RL
# [9] = activation of miR-122 Renilla sensor silencing – cell-based, Huh7 psiCHECK-miR122, Renilla luciferase, cherry-picked, dose response (AID 651956); type: functional;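 further: huh7 hepatoma cells stably carrying a psiCHECK-2 miR-122 sensor plasmid; renilla luciferase signal reporting endogenous miR-122 activity after 48 h compound exposure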
# [10] = general mammalian cell viability loss – inhibitor set, cherry-pick, set 2, cytotoxicity control for miR-122 modulator project, dose response (AID 720697); type: functional, cell-based
# [11] = general mammalian cell viability loss – activator set, cherry-pick, cytotoxicity control for miR-122 modulator project, dose response (AID 720690); type: functional, cell-based;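 further: HEK293T human cells scored for general mammalian cytotoxicity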
# Paired box protein Pax-8 = Paired box protein Pax-8 (Homo sapiens, UniProt Q06710); test: PAX8 transcriptional activity inhibition in RMG-I – RMG-I cells, luciferase, cherry-pick, dose response (AID 687027); type: functional, cell-based;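 further: luciferase reporter driven by Pax8 target thyroperoxidase promoter measured by SteadyGlo luminescence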
# Sequence of Paired box protein Pax-8 (Q06710 whole entry): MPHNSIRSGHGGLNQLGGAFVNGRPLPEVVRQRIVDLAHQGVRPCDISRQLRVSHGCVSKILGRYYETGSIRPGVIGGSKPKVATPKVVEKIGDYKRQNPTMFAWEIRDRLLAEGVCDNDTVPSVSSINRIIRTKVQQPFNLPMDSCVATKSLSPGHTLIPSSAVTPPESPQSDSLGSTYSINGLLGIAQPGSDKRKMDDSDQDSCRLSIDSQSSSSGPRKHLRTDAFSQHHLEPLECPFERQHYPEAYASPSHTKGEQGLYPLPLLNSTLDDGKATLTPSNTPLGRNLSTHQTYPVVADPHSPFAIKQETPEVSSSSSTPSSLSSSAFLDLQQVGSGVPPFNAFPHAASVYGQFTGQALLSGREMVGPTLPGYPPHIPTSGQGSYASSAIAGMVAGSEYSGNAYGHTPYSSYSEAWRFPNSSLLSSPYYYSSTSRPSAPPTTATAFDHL
# [12] = A2780 cell killing – plate reader, dry powder samples, cytotoxicity control, dose response (AID 743046); type: functional, cell-based
# [13] = CMV-driven luciferase expression suppression in HEK293 – cell-based, luminescence, dry powder, counter-screen for Pax8 inhibitor project, dose response (AID 743020); type: functional
# [14] = OVCAR-3 cell viability loss – plate reader, dry powder samples, PAX8 inhibitor project, dose response (AID 743044); type: functional, cell-based
# [15] = IGROV1 cell killing – plate reader, dry powder samples, PAX8 inhibitor project, dose response (AID 743043); type: functional, cell-based; settings: IGROV-1
# [16] = OVCAR8 cell viability loss – plate reader, dry powder samples, PAX8 project, dose response (AID 743197); type: functional, cell-based; settings: OVCAR-8
# [17] = P. falciparum Dd2 growth inhibitors, dose response, SYBR Green, cherry-picked samples (AID 1159567); type: functional, cell-based
# [18] = toxicity toward immortalized ovarian surface epithelium – cell-based, plate reader, dry powder samples, cytotoxicity control for PAX8 inhibitor project, dose response (AID 743045); type: functional
# [19] = A549 cell cytotoxicity, dose response, cytotoxicity control, plate reader, cherry-pick, antagonist series (AID 743412); type: functional, cell-based
# [20] = toxicity toward HepG2 liver cells – cell-based, plate reader, cherry-pick, antagonist series, cytotoxicity control, dose response (AID 743416); type: functional
# [21] = blockers of bursicon-stimulated LGR2 cAMP reporter – cell-based, HEK293, CRE-luciferase reporter, cherry pick, set 2, dose response (AID 743343); type: functional;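 further: transfected cells were stimulated with diluted bursicon conditioned medium after compound addition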
# [22] = blockade of melanocortin 4 receptor signaling – cell-based, plate reader, cherry pick, counter-screen for LGR2 antagonist project, dose response (AID 743444); type: functional;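 further: transfected HEK 293 cells stimulated with alpha-MSH peptide; potency of inhibitors of the alpha-MSH evoked signal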
# [23] = viability loss in HEK293 cells – cell-based, plate reader, cherry-picked samples, cytotoxicity control, dose response (AID 743446); type: functional
# [24] = growth inhibition of yeast DHODH-expressing 3D7 parasites – SYBR Green, dry powder samples, dose response (AID 1159570); type: functional, cell-based;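 further: parasite growth measured after 72 hours of compound exposure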
# [25] = toxicity to human HepG2 hepatoma cells – cell-based, plate reader, dry powder samples, cytotoxicity control, dose response (AID 1159569); type: functional;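 further: inhibitor potency with signal falling toward the positive control level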
# [26] = Dd2 malaria parasite growth inhibition potency – SYBR Green, dry powder samples, dose response (AID 1159566); type: functional, cell-based;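 further: potency for growth inhibition with lower SYBR green DNA signal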
# [27] = growth inhibition of PfATP4-mutant resistant parasites – NITD609-resistant line, SYBR Green, dry powder, dose response (AID 1159571); type: functional, cell-based;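 further: parasites synchronized at ring stage by sorbitol before testing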
# [28] = liver cell line viability loss – HepG2, luminescence plate reader, powder samples, set 2, cytotoxicity control, dose response (AID 651860); type: functional, cell-based
# [29] = target: Endoplasmic reticulum aminopeptidase 1 (Homo sapiens, UniProt Q9NZ08); test: inhibition of human ERAP1 enzyme activity – biochemical, cherry-pick, set 2, plate reader, dose response (AID 743314)
# Sequence of Endoplasmic reticulum aminopeptidase 1 (Q9NZ08 whole entry): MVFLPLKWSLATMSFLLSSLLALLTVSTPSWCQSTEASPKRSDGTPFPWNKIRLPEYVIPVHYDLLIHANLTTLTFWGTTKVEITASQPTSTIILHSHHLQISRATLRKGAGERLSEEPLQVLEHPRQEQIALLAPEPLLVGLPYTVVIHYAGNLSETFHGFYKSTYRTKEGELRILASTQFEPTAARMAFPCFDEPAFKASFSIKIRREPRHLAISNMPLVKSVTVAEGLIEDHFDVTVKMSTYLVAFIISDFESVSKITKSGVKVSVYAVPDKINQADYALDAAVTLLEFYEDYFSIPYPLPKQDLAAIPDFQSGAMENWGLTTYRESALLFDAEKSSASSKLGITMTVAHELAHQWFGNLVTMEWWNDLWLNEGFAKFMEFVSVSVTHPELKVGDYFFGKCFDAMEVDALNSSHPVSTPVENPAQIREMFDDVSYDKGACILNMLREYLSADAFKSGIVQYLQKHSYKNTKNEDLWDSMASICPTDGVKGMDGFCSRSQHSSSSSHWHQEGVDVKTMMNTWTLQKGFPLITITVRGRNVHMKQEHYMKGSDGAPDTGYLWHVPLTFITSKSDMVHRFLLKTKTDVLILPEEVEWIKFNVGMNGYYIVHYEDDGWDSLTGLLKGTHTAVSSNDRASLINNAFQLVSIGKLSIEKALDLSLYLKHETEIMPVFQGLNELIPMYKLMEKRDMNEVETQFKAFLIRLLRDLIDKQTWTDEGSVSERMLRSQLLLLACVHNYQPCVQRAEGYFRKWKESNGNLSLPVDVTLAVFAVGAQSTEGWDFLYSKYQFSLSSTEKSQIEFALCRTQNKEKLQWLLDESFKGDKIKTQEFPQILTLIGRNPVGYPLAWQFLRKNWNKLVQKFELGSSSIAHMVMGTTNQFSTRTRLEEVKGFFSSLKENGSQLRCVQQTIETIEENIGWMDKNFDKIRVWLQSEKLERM
# [30] = Late stage assay provider results from the probe development effort to identify selective inhibitors of heat shock protein 90 (HSP90): Absorbance-based cell proliferation assay in SKBR3 cells.; type: functional; settings: SK-BR-3
# [31] = Late stage assay provider results from the probe development effort to identify selective inhibitors of heat shock protein 90 (HSP90): Absorbance-based cell proliferation assay in MCF7 cells.; type: functional
# [32] = target: Potassium channel subfamily K member 3 (Homo sapiens, UniProt O14649); test: inhibition of human KCNK3 channel flux – CHO cells, FluxOR thallium flux, SAR follow-up (AID 652212); type: functional
# Sequence of Potassium channel subfamily K member 3 (O14649 whole entry): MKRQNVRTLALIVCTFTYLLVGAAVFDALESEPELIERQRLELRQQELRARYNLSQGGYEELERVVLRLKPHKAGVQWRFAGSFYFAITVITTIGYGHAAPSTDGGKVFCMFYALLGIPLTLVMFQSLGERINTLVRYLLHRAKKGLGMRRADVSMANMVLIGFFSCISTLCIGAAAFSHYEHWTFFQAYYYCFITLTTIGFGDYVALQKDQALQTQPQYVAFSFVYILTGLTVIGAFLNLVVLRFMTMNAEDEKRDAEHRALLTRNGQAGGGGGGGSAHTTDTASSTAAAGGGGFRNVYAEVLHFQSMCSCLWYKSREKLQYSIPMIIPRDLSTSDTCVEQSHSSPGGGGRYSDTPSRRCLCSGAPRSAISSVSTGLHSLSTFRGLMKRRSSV
# Nonstructural protein 1 = Nonstructural protein 1 (Influenza A virus, UniProt Q194T2); type: functional, Influenza A virus (A/California/07/2009(H1N1))
# Sequence of Nonstructural protein 1 (Q194T2 whole entry): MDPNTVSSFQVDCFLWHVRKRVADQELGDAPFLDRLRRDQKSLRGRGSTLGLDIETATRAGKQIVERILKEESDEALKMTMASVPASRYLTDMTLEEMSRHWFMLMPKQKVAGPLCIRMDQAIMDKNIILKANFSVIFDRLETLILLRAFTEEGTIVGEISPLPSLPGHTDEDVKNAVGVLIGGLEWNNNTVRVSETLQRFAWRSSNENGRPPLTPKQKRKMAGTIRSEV
# INS1 = test: INS-1E survival protection against cytokine death – cell-based, luminescence, retest, dose response (AID 449756); type: functional; settings: Rattus norvegicus;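 further: cell death triggered by IL-1 beta plus TNF-alpha plus IFN-gamma mixture; protective hits raise ATP signal compared with cytokine alone wells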
# fMet-Leu-Phe receptor = fMet-Leu-Phe receptor (Homo sapiens, UniProt P21462); test: formyl peptide receptor binders – dose response (AID 519); type: functional
# Sequence of fMet-Leu-Phe receptor (P21462 whole entry): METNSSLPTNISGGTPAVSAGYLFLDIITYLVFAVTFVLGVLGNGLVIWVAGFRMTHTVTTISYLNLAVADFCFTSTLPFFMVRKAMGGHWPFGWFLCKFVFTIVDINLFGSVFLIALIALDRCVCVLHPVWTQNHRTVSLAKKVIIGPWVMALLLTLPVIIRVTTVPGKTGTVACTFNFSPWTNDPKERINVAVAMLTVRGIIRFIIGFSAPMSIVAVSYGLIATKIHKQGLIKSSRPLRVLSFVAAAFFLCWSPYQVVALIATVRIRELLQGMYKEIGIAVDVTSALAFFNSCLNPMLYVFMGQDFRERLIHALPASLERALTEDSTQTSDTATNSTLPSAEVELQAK
# Cytochrome P450 3A4 = Cytochrome P450 3A4 (Homo sapiens, UniProt P08684);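 further: CYP3A4 tested as one member of a cytochrome P450 panel screen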
# Sequence of Cytochrome P450 3A4 (P08684 whole entry): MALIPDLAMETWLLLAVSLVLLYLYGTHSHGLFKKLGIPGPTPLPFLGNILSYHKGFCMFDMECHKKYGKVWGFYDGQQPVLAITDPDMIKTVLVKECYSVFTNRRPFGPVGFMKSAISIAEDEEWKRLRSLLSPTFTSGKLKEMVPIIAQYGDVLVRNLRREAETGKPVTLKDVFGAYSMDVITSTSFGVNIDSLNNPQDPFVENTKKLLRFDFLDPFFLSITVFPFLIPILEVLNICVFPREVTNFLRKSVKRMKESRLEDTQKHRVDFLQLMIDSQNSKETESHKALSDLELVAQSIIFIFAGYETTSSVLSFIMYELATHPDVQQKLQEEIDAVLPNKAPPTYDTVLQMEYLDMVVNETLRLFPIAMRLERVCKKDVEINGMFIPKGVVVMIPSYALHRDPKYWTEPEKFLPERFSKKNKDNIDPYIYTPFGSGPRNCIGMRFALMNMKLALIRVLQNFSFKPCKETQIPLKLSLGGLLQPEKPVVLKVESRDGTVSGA
# [33] = T. cruzi growth inhibition in host cells, dose response, cell-based, plate reader, dry powder, set 2 (AID 652275); type: functional
# 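Wherever EC50 is given: agonist potency from rise in intracellular calcium fluorescence.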
structure (smiles),measurement,setting,value
COc1cc(CN2CCc3ccccc3C2)ccc1O,AC50,[1],0.912 µM (active)
same,AC50,[2],24.9 µM (active)
same,AC50,[3],5.64 µM (active)
same,IC50,cells [4],> 29.9 µM (inactive)
same,EC50,cells [5],> 29.9 µM (inactive)
same,AC50,[6],3.71 µM (active)
same,AC50,[7],2.65 µM (active)
same,AC50,[8],2.93 µM (active)
C[C@@H]1CN([C@@H](C)CO)S(=O)(=O)c2ccc(C#Cc3ccccc3F)cc2O[C@@H]1CN(C)C(=O)Cc1ccncc1,AC50,[9],6.5 µM (active)
same,AC50,[10],5.41 µM (active)
same,AC50,[11],45 µM (active)
CN1c2ccc(-c3cccc(C#N)c3)cc2[C@H]2[C@H](CCN2S(=O)(=O)c2ccccc2F)[C@H]1CO,AC50,Paired box protein Pax-8,4.87 µM (active)
same,AC50,[12],38.1 µM (active)
same,AC50,[13],28.2 µM (active)
same,AC50,[14],16.6 µM (active)
same,AC50,[15],33.3 µM (active)
same,AC50,[16],23.4 µM (active)
same,AC50,[17],3.57 µM (active)
N#Cc1ccc(-c2ccc([C@@H]3[C@@H]4CN(C(=O)C5CC5)C[C@H]3N4)cc2)cc1,AC50,Paired box protein Pax-8,1.16 µM (active)
same,AC50,[18],40.5 µM (active)
same,AC50,[12],7.18 µM (active)
same,AC50,[14],7.05 µM (active)
same,AC50,[19],0.821 µM (active)
same,AC50,[20],1.97 µM (active)
same,AC50,[15],4.73 µM (active)
same,AC50,[21],1.22 µM (active)
same,AC50,[22],0.684 µM (active)
same,AC50,[16],19.9 µM (active)
same,AC50,[23],1.7 µM (active)
same,AC50,[24],0.328 µM (active)
same,AC50,[25],1.41 µM (active)
same,AC50,[17],< 0.3 µM (active)
same,AC50,[26],0.376 µM (active)
same,AC50,[27],0.449 µM (active)
O=C(O)C1CCCCC1C(=O)N1CCc2ccccc2C1CN1C(=O)Cc2ccccc2C1=O (centres undefined),AC50,[28],> 52 µM (inactive)
C[C@H](CO)N1C[C@H](C)[C@H](CN(C)C(=O)Nc2ccccc2)Oc2ncccc2C1=O,AC50,[29],12.3 µM (active)
CCCCOc1cccc(NC(=O)c2coc(=O)c(Br)c2)c1,IC50,[30],32.9 µM (inactive)
same,IC50,[31],22.8 µM (inactive)
COc1ccc(C(=O)Nc2cccc(NC(=O)c3ccccc3)c2)cc1,IC50,[32],4.46 µM (active)
Nc1ccc(Nc2ccccc2)cc1,IC50,Nonstructural protein 1,45.3 µM (active)
same,AC50,INS1,7.64 µM (active)
same,Ki,fMet-Leu-Phe receptor,> 66.7 µM (inactive)
same,AC50,Cytochrome P450 3A4,20 µM (inconclusive)
O=C(Cn1ccnc1[N+](=O)[O-])NCc1ccccc1 [BENZNIDAZOLE],AC50,[33],0.153 µM (active)
